Experimental data taken from patent US11317626B2, “Forchlorfenuron mixtures and uses thereof” (Valent BioSciences LLC, priority 2018, dated 2022).

Tests used:
Type in all cases: in vivo
Concord grape vines = experiment: Example 1: bud break and shoot growth of potted Concord grape vines in greenhouse; settings: for Broken Buds/Plant / FW/Broken Bud: 51 days post-treatment; for FW/Plant: combined shoot fresh weight at 51 DAT; for 50% BB: days from application to 50% of the plants showing at least one bud broken; for 0-50% BB: days from bud break on the first plant to 50% of the plants with bud break, synchrony
Description: An aqueous 50% hydrogen cyanamide solution (Sigma-Aldrich, St. Louis, Mo. USA) was used as the source of hydrogen cyanamide (“HC”). The commercial product, Dormex® contains 50% hydrogen cyanamide (w/v) in an aqueous base.
Erger® was used as the source of 15-0-0 fertilizer. Erger® contains 15% total nitrogen as 3.1% ammoniacal nitrogen, 5.8% nitrate nitrogen, 6.1% urea nitrogen and 3.3% calcium derived from a mixture of ammonium nitrate, calcium nitrate and urea. Erger® is always used in combination with either 20% (w/v) Ca(NO3)2 or Activ Erger®. In the following examples, 15-0-0 fertilizer was applied at a rate of 208,340 ppm calcium nitrate, 15,060 ppm nitrogen nitrate and 15,660 ppm urea or 239,060 ppm total.
CAN-17 was used as the 17-0-0 fertilizer. CAN-17 contains 17% total nitrogen as 4.6% ammonium nitrogen and 11.6% nitrate nitrogen and 1.3% urea nitrogen and 8.8% calcium derived from ammonium nitrate and calcium nitrate. CAN-17 is available from J. R. Simplot Company (Boise, Id., USA). In the following examples, 17-0-0 fertilizer was applied at a rate of 118,200 ppm calcium nitrate and 78,900 ppm nitrogen nitrate or 197,100 ppm total. See, Table 1 below, for ratios of forchlorfenuron (“CPPU”) to fertilizer that were used in the following examples.
To assess the ability of mixtures of the invention to promote and synchronize bud break these mixtures were applied to Concord grape vines and examined for bud break (initiation of growth) and subsequent shoot development. Specifically, dormant bare-rooted Concord grape vines were planted in pots containing Pro-Mix® BX potting soil (Pro-Mix is a registered trademark of and available from Premier Horticulture Ltd.) and pruned to five nodes on a single shoot of one-year-old wood. Nodes are regions on the shoot where leaves arise from the shoot and buds are present at the axis of the shoot:leaf interface. The bud found at the shoot:leaf interface develops into the vines new shoot growth. Aqueous solutions of forchlorfenuron, HC, 15-0-0 fertilizer, 17-0-0 fertilizer, and mixtures thereof were each applied individually or sequentially or co-applied to the first-year wood of separate Concord grape vines. Plants were grown in a heated greenhouse for 49 days and evaluated for percent of vines showing bud break, periodically between seven days after application and the conclusion of the experiment. Percent bud break is determined by the number of plants that have at least one bud broken divided by the total number of plants per treatment times 100. At 51 days after treatment (“DAT”), the plants were sacrificed and measured for total number of flower clusters, total new shoot length, longest new shoot, combined new shoot fresh weight. New shoot growth is the growth arising from the dormant buds not including the woody growth that was planted and gave rise to the new growth.
(§1) To determine if the mixtures provided unexpected results, the observed combined efficacy (“OCE”) was divided by the expected combined efficacy (“ECE”) wherein the expected ECE is calculated by the Abbott method: ECE=A+B−(AB/100), • wherein ECE is the expected combined efficacy and in which A and B are the speed of bud break relative to control, the number of buds broken per plant relative to control, shoot length relative to control or shoot weight relative to control given by the single active ingredients. If the ratio between the OCE of the mixture and the ECE of the mixture is greater than 1, then greater than expected interactions are present in the mixture. (Gisi, Synergistic Interaction of Fungicides in Mixtures, The American Phytopathological Society, 86:11, 1273-1279,1996). Results

Malus (apple) rootstocks = experiment: Example 4: bud break and shoot growth of Malus (apple) rootstocks; settings: for Fresh Weight at Harvest: combined new shoot growth; for Fresh Weight at Harvest / Average Number of Broken Buds Per Malus Plant at Harvest / Fresh Weight per Bud at Harvest / Average Number of Broken Nodes Per Centimeter of Shoot at Harvest: harvest at 28 days; for Average Number of Broken Nodes Per Centimeter of Shoot at Harvest: rootstocks pruned to 25 centimeters
Procedure: as §1
To assess the ability of mixtures of the invention to promote and synchronize bud break, these mixtures were applied to field-grown Malus (apple) rootstocks and examined for bud break (initiation of growth) and subsequent shoot development. Forchlorfenuron, Dormex (50% HC), 15-0-0 (Erger®) and 17-0-0 fertilizers (CAN17), and mixtures thereof were each applied individually or sequentially (co-applied) to the shoots of potted Malus rootstocks that were pruned to a height of 25 centimeters. Plants were evaluated for bud break at 28 days after treatment.

[1] = system: Prunus (stone fruit) plants; experiment: Example 5: bud break and shoot growth of Prunus (stone fruit) plants in greenhouse; settings: for Fresh Weight at Harvest, FW: combined new shoot fresh weight, harvest at 28 days; for 50% BB: days after treatment to 50% bud break
Procedure: as §1
To assess the ability of mixtures of the invention to promote and synchronize bud break, these mixtures were applied to Prunus (stone fruit) plants in the greenhouse and examined for bud break (initiation of growth) and subsequent shoot development. Forchlorfenuron, Dormex (50% HC), 15-0-0 (Erger®) and 17-0-0 fertilizers (CAN17), and mixtures thereof were each applied individually or sequentially (co-applied) to the shoots of Prunus plants. Plants were evaluated for bud break at 28 days after treatment.

## O=C(Nc1ccccc1)Nc1ccnc(Cl)c1 [CPPU, N-(2-Chloro-4-pyridyl)-N′-phenylurea]
Concord grape vines; 31 days after treatment, plants with at least one bud showing a green shoot emerging, listed as CPPU 100 ppm
  Percentage of Concord Grape Vines with Dormancy Relieved: 25%
Concord grape vines; 31 days after treatment, plants with at least one bud showing a green shoot emerging, listed as CPPU 300 ppm
  Percentage of Concord Grape Vines with Dormancy Relieved: 12.5%
Concord grape vines; 31 days after treatment, plants with at least one bud showing a green shoot emerging, listed as CPPU 1000 ppm
  Percentage of Concord Grape Vines with Dormancy Relieved: 37.5%
Concord grape vines; 34 days after treatment, listed as CPPU 100 ppm
  Percentage of Concord Grape Vines with Dormancy Relieved: 50%
Concord grape vines; 34 days after treatment, listed as CPPU 300 ppm
  Percentage of Concord Grape Vines with Dormancy Relieved: 37.5%
Concord grape vines; 34 days after treatment, listed as CPPU 1000 ppm
  Percentage of Concord Grape Vines with Dormancy Relieved: 62.5%
Concord grape vines; 36 days after treatment, listed as CPPU 100 ppm
  Percentage of Concord Grape Vines with Dormancy Relieved: 50%
Concord grape vines; 36 days after treatment, listed as CPPU 300 ppm
  Percentage of Concord Grape Vines with Dormancy Relieved: 50%
Concord grape vines; 36 days after treatment, listed as CPPU 1000 ppm
  Percentage of Concord Grape Vines with Dormancy Relieved: 62.5%
Concord grape vines; 38 days after treatment, listed as CPPU 100 ppm
  Percentage of Concord Grape Vines with Dormancy Relieved: 50%
Concord grape vines; 38 days after treatment, listed as CPPU 300 ppm
  Percentage of Concord Grape Vines with Dormancy Relieved: 50%
Concord grape vines; 38 days after treatment, listed as CPPU 1000 ppm
  Percentage of Concord Grape Vines with Dormancy Relieved: 75%
Concord grape vines; 43 days after treatment, listed as CPPU 100 ppm
  Percentage of Concord Grape Vines with Dormancy Relieved: 75%
Concord grape vines; 43 days after treatment, listed as CPPU 300 ppm
  Percentage of Concord Grape Vines with Dormancy Relieved: 62.5%
Concord grape vines; 43 days after treatment, listed as CPPU 1000 ppm
  Percentage of Concord Grape Vines with Dormancy Relieved: 87.5%
Concord grape vines; 45 days after treatment, listed as CPPU 100 ppm
  Percentage of Concord Grape Vines with Dormancy Relieved: 75%
Concord grape vines; 45 days after treatment, listed as CPPU 300 ppm
  Percentage of Concord Grape Vines with Dormancy Relieved: 62.5%
Concord grape vines; 45 days after treatment, listed as CPPU 1000 ppm
  Percentage of Concord Grape Vines with Dormancy Relieved: 87.5%
Concord grape vines; 51 days after treatment, listed as CPPU 100 ppm
  Percentage of Concord Grape Vines with Dormancy Relieved: 87.5%
Concord grape vines; 51 days after treatment, listed as CPPU 300 ppm
  Percentage of Concord Grape Vines with Dormancy Relieved: 62.5%
Concord grape vines; 51 days after treatment, listed as CPPU 1000 ppm
  Percentage of Concord Grape Vines with Dormancy Relieved: 87.5%
Concord grape vines; listed as CPPU 100 ppm
  Broken Buds/Plant: 1.71
  FW/Broken Bud: 4.73 grams
  FW/Plant: 8.11 grams
  50% BB: 34 days
  0-50% BB: 10 days
Concord grape vines; listed as CPPU 300 ppm
  Broken Buds/Plant: 2.00
  FW/Broken Bud: 4.69 grams
  FW/Plant: 9.39 grams
  50% BB: 36 days
  0-50% BB: 7 days
Concord grape vines; listed as CPPU 1000 ppm
  Broken Buds/Plant: 1.29
  FW/Broken Bud: 9.51 grams
  FW/Plant: 12.22 grams
  50% BB: 34 days
  0-50% BB: 14 days
Malus (apple) rootstocks; listed as CPPU 300 ppm
  Fresh Weight at Harvest: 6.98 grams
  Average Number of Broken Buds Per Malus Plant at Harvest: 7.00
  Fresh Weight per Bud at Harvest: 0.88 grams
  Average Number of Broken Nodes Per Centimeter of Shoot at Harvest: 0.28
Malus (apple) rootstocks; listed as CPPU 600 ppm
  Fresh Weight at Harvest: 5.65 grams
  Average Number of Broken Buds Per Malus Plant at Harvest: 8.25
  Fresh Weight per Bud at Harvest: 0.71 grams
  Average Number of Broken Nodes Per Centimeter of Shoot at Harvest: 0.33
Malus (apple) rootstocks; days after treatment to 50% bud break
  50% BB: 12 days
Malus (apple) rootstocks; observed efficacy, relative to control
  50% BB OCE: 2
[1]; listed as CPPU 300 ppm
  Fresh Weight at Harvest, FW: 1.34 grams
  50% BB: 14 days
[1]; listed as CPPU 600 ppm
  Fresh Weight at Harvest, FW: 4.91 grams
  50% BB: 10 days
